Data published in paper PMC4278837, “A Cyclic Peptidic Serine Protease Inhibitor: Increasing Affinity by Increasing Peptide Flexibility” (PLoS ONE, 2014).
Bridge positions count the residues as written; N and C are the ends. Peptide text beside a SMILES is read from it.

Assays:
[1] = molecular target: T1, huPA-H99Y (Homo sapiens, UniProt P00749, H272Y); test: Ki for inhibition of huPA-H99Y, chromogenic substrate S-2444; assay type: biochemical; conditions: 37°C; means ± S.D.; read-out: K i for inhibition of huPA-H99Y
T1 construct: To ensure that the uPAs purified from the conditioned media were completely in the two-chain form, they were treated with plasmin; hexa-His (C); made in house; host or cells: HEK293 6E suspension cells
From the text: (§1) Determination of Ki values
(§2) The initial reaction velocities were monitored at an absorbance of 405 nm. The inhibition constants (K i) were subsequently determined from the non-linear regression analyses of plots for V i/V o versus [I]0, using Equation 2, derived under assumption of competitive inhibition:
(§3) [drawing 2] (2) where V i and V 0 are the reaction velocities in the presence and absence of inhibitor, respectively; [S]0 and [I]0 are the substrate and inhibitor concentrations, respectively; K M is K M for substrate hydrolysis by each protease. In Equation 2, it is assumed that [S]free ≈ [S]0 and [I]free ≈ [I]0.

[2] = molecular target: T2, muPA K143A (Mus musculus, UniProt P06869, K322A); test: Ki for inhibition of muPA-K143A, chromogenic substrate; assay type: biochemical, murine; conditions: means ± S.D.; read-out: K i for inhibition of muPA-K143A
T2 construct: To ensure that the uPAs purified from the conditioned media were completely in the two-chain form, they were treated with plasmin; hexa-His (C); made in house; host or cells: HEK293 6E suspension cells
T2 sequence (P06869 180-433 K322A): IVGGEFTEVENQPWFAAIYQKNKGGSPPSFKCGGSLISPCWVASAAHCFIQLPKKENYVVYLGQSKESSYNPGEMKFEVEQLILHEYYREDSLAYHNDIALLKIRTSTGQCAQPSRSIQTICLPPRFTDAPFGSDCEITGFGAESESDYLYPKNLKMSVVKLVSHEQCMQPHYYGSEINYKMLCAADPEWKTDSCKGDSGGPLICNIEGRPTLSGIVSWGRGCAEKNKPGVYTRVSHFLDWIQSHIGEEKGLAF
T2 sequence (P06869 21-178 partner limits assumed): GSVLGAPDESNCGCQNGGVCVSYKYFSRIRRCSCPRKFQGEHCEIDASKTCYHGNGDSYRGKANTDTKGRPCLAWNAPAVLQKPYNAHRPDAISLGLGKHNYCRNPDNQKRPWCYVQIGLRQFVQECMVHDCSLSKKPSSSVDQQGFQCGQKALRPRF
From the text: as §1, §2, §3

[3] = molecular target: T3, huPA-H99Y (Homo sapiens, UniProt P00749, C299A/H272Y/N322Q); test: Isothermal titration calorimetry for binding to huPA-H99Y catalytic domain; conditions: ITC, 25°C, pH 7.4
T3 construct: recombinant uPA catalytic domain (residues 159–411), harbouring a H99Y mutation; made in house; host or cells: Pichia pastoris X-33 (secreted)
Method: For these experiments, we used the catalytic domain of huPA-H99Y expressed in and purified from Pichia pastoris strain X-33 (see above). The protein was dissolved in and dialysed against a buffer of 20 mM sodium phosphate, pH 7.4, 140 mM NaCl. The protein concentration was determined by absorbance at 280 nm, using an extinction coefficient of 43810 M^−1cm^−1. The peptides were dissolved in the above-mentioned buffer. All isothermal titration calorimetry experiments were performed with a MicroCal^TM ITC200 instrument equilibrated to a temperature of 25°C (298oK). The concentration of uPA-H99Y catalytic domain used in the 200 µl sample cell was 5–50 µM, depending on the affinity of the ligand. Titrations were performed by injecting 2 µl of the ligand until the total syringe volume of 40 µl was spent. Titration of ligand into buffer was performed to obtain buffer correction. The equilibrium association constant KA and the reaction enthalpy ΔH were calculated by fitting the integrated titration peaks using a one-binding-site model in the ITC ORIGIN7 programme package. The following formulas for Gibbs free energy ΔG were used to analyse the measured energies
[drawing 4] (4) where R is the gas constant and T the absolute temperature. ΔS, the entropic change during the reaction, was calculated using equations 3 and 4 and the measured K A and ΔH values.

[4] = molecular target: T4, muPA (Mus musculus, UniProt P06869); test: Surface plasmon resonance analysis of peptide binding to muPA; parameters: species or system murine; conditions: SPR, 25°C, pH 7.4
T4 construct: To ensure that the uPAs purified from the conditioned media were completely in the two-chain form, they were treated with plasmin; hexa-His (C); made in house; host or cells: HEK293 6E suspension cells
T4 sequence (P06869 180-433 limits assumed): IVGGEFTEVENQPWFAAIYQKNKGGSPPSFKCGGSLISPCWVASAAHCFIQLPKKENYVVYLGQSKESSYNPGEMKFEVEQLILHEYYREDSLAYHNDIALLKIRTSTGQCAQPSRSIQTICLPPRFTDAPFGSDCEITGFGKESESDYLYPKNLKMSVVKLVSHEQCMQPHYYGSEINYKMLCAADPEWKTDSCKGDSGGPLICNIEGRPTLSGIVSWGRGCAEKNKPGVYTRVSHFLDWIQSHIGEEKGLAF
T4 sequence (P06869 21-178 partner limits assumed): as the sequence (P06869 21-178 partner limits assumed) above
Method: (§4) Surface plasmon resonance (SPR) analysis
(§5) To determine the equilibrium binding constants (KD), the association rate constants (kon) and dissociation rate constants (koff) for peptide binding to uPA, surface plasmon resonance analysis was performed on a Biacore T200 instrument (Biacore, Uppsala, Sweden). A CM5 chip was coupled with the uPA variant (muPA or huPAH99Y) to be analysed, by injecting a concentration of 30 µg/mL uPA in immobilization buffer (10 mM sodium acetate, pH 5.0), aiming for an immobilised level of approximately 500 response units (RU). Immobilisation was followed by surface blocking with ethanolamine. A reference cell was prepared in the same way, without coupling of uPA. Mupain-1 variants in HBS with 0.1% BSA, in a dilution series, were injected at a flow rate of 30 µL per min during 60 s at 25°C. Subsequently, the dissociation was monitored during 600 s. Kinetic constants (k on and k off) were calculated with the Biacore Evaluation Software, using the 1∶1 kinetic fit. The K D values were calculated as k off /k on.

[5] = molecular target: T5, muPA wt (Mus musculus, UniProt P06869); conditions: means ± S.D.; starred values reproduced from previous publications; ref Andersen et al., 2008; Hosseini et al., 2011; read-out: K i for inhibition of muPA wt; cited from earlier work
T5 construct: To ensure that the uPAs purified from the conditioned media were completely in the two-chain form, they were treated with plasmin; hexa-His (C); made in house; host or cells: HEK293 6E suspension cells
T5 sequence (P06869 180-433 limits assumed): as the sequence (P06869 180-433 limits assumed) above
T5 sequence (P06869 21-178 partner limits assumed): as the sequence (P06869 21-178 partner limits assumed) above

[6] = molecular target: T6, muPA V213T (Mus musculus, UniProt P06869, V396T); test: Ki for inhibition of muPA-V213T, chromogenic substrate; assay type: biochemical, murine; conditions: means ± S.D.; read-out: K i for inhibition of muPA-V213T
T6 construct: To ensure that the uPAs purified from the conditioned media were completely in the two-chain form, they were treated with plasmin; hexa-His (C); made in house; host or cells: HEK293 6E suspension cells
T6 sequence (P06869 180-433 V396T): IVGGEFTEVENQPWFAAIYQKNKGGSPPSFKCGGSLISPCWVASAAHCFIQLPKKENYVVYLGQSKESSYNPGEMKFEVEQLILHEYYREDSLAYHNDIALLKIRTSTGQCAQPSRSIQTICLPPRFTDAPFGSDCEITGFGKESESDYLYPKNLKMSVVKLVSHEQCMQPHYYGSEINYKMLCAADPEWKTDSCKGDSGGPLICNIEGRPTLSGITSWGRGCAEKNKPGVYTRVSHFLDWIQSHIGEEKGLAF
T6 sequence (P06869 21-178 partner limits assumed): as the sequence (P06869 21-178 partner limits assumed) above
From the text: as §1, §2, §3

[7] = molecular target: T7, muPA Y99A (Mus musculus, UniProt P06869, Y274A); test: Ki for inhibition of muPA-Y99A, chromogenic substrate; assay type: biochemical, murine; conditions: means ± S.D.; read-out: K i for inhibition of muPA-Y99A
T7 construct: To ensure that the uPAs purified from the conditioned media were completely in the two-chain form, they were treated with plasmin; hexa-His (C); made in house; host or cells: HEK293 6E suspension cells
T7 sequence (P06869 180-433 Y274A): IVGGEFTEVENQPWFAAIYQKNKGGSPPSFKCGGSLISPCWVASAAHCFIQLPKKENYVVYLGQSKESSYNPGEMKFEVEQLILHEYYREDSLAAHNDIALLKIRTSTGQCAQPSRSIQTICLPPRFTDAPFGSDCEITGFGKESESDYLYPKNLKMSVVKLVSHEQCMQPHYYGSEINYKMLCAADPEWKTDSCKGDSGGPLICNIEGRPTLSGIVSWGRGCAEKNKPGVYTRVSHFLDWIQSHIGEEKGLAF
T7 sequence (P06869 21-178 partner limits assumed): as the sequence (P06869 21-178 partner limits assumed) above
From the text: as §1, §2, §3

[8] = molecular target: T1, huPA-H99Y; test: Surface plasmon resonance analysis of peptide binding to huPA-H99Y; conditions: SPR, 25°C, pH 7.4
Method: as §4, §5

[9] = molecular target: T8, muPA S190A (Mus musculus, UniProt P06869, S373A); test: Ki for inhibition of muPA-S190A, chromogenic substrate; assay type: biochemical, murine; conditions: means ± S.D.; read-out: K i for inhibition of muPA-S190A
T8 construct: To ensure that the uPAs purified from the conditioned media were completely in the two-chain form, they were treated with plasmin; hexa-His (C); made in house; host or cells: HEK293 6E suspension cells
T8 sequence (P06869 180-433 S373A): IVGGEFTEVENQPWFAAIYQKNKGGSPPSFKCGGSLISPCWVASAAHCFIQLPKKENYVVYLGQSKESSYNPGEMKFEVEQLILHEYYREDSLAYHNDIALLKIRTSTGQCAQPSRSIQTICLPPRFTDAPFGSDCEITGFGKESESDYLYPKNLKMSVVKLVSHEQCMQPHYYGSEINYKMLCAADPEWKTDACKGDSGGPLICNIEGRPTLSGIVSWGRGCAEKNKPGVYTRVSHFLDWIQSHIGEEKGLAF
T8 sequence (P06869 21-178 partner limits assumed): as the sequence (P06869 21-178 partner limits assumed) above
From the text: as §1, §2, §3

[10] = molecular target: T9, huPA-H99Y R35A (Homo sapiens, UniProt P00749, H272Y/R198A); test: Ki for inhibition of huPA-H99Y-R35A, chromogenic substrate; assay type: biochemical; conditions: 37°C; means ± S.D.; read-out: K i for inhibition of huPA-H99Y-R35A
T9 construct: To ensure that the uPAs purified from the conditioned media were completely in the two-chain form, they were treated with plasmin; hexa-His (C); made in house; host or cells: HEK293 6E suspension cells
From the text: as §1, §2, §3

[11] = molecular target: T10, muPA K41A (Mus musculus, UniProt P06869, K210A); test: Ki for inhibition of muPA-K41A, chromogenic substrate; assay type: biochemical, murine; conditions: means ± S.D.; read-out: K i for inhibition of muPA-K41A
T10 construct: To ensure that the uPAs purified from the conditioned media were completely in the two-chain form, they were treated with plasmin; hexa-His (C); made in house; host or cells: HEK293 6E suspension cells
T10 sequence (P06869 180-433 K210A): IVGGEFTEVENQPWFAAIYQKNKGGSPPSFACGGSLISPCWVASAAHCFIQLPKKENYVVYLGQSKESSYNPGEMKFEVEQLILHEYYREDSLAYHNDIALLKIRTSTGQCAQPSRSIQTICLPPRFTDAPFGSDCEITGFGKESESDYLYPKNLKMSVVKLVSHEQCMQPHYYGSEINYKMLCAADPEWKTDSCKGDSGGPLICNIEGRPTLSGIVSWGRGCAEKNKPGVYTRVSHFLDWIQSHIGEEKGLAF
T10 sequence (P06869 21-178 partner limits assumed): as the sequence (P06869 21-178 partner limits assumed) above
From the text: as §1, §2, §3

[12] = molecular target: huPA-H99Y Q192A (Homo sapiens, UniProt P00749, H272Y/Q373A); test: Ki for inhibition of huPA-H99Y-Q192A, chromogenic substrate; assay type: biochemical; parameters: To ensure that the uPAs purified from the conditioned media were completely in the two-chain form, they were treated with plasmin; hexa-His (C); made in house; host or cells: HEK293 6E suspension cells; conditions: 37°C; means ± S.D.; read-out: K i for inhibition of huPA-H99Y-Q192A
From the text: as §1, §2, §3

[13] = molecular target: T11, huPA-H99Y V41A (Homo sapiens, UniProt P00749, H272Y/V208A); test: Ki for inhibition of huPA-H99Y-V41A, chromogenic substrate; assay type: biochemical; conditions: 37°C; means ± S.D.; read-out: K i for inhibition of huPA-H99Y-V41A
T11 construct: To ensure that the uPAs purified from the conditioned media were completely in the two-chain form, they were treated with plasmin; hexa-His (C); made in house; host or cells: HEK293 6E suspension cells
From the text: as §1, §2, §3

[14] = molecular target: T12, huPA-H99Y K143A (Homo sapiens, UniProt P00749, H272Y/K320A); test: Ki for inhibition of huPA-H99Y-K143A, chromogenic substrate; assay type: biochemical; conditions: 37°C; means ± S.D.; read-out: K i for inhibition of huPA-H99Y-K143A
T12 construct: To ensure that the uPAs purified from the conditioned media were completely in the two-chain form, they were treated with plasmin; hexa-His (C); made in house; host or cells: HEK293 6E suspension cells
From the text: as §1, §2, §3

Q: Which Ki [1] does the source give for CPAYSRYLDC [Mupain-1 L8A] here?
A: 19.1 ± 1.1 µM

Q: Which results are given for `CC(=O)N[C@H]1CSSC[C@@H](C(N)=O)NC(=O)[C@H](C)NC(=O)[C@H](CC(C)C)NC(=O)[C@H](Cc2ccc(O)cc2)NC(=O)[C@H](CCCNC(=N)N)NC(=O)[C@H](CO)NC(=O)[C@H](Cc2ccc(O)cc2)NC(=O)[C@H](C)NC(=O)[C@@H]2CCCN2C1=O` [Mupain-1 D9A, CPAYSRYLAC] (Ac-CPAYSRYLAC-NH2; disulfide 1-10)?
A: Ki [2]: 4.34 ± 0.64 µM; Kd [3]: 1.17 ± 0.3 µM; k off, muPA [4]: 4.01±0.31 (3) s^−1, ×10^2; k on, muPA [4]: 0.985±0.169 (3) M^−1s^−1, ×10^−5; Ki [5]: 0.89 ± 0.02 µM; Ki [6]: 0.373 ± 0.055 µM; Ki [1]: 5.99 ± 0.43 µM; Ki [7]: 27.2 ± 3.3 µM; k off, huPA-H99Y [8]: 36.6±0.21 (3) s^-1, ×10^2; k on, huPA-H99Y [8]: 2.60±0.20 (3) M^-1s^-1, ×10^-5; Kd ([8]; calculated as k off/k on, read-out: K D, huPA-H99Y): 1.41 ± 0.11 µM; Ki [9]: 3.02 ± 0.33 µM; Ki [10]: 2.68 ± 0.29 µM; Ki [11]: 0.27 ± 0.029 µM; Ki [12]: 4.85 ± 0.32 µM; Ki [13]: 7.2 ± 1.44 µM; Ki [14]: 8.74 ± 0.64 µM

Q: Which Ki [1] does the source give for `CC(=O)N[C@H]1CSSC[C@@H](C(N)=O)NC(=O)[C@H](CC(=O)O)NC(=O)[C@H](CC(C)C)NC(=O)[C@H](Cc2ccc(O)cc2)NC(=O)[C@H](CCCNC(=N)N)NC(=O)[C@H](CO)NC(=O)[C@H](Cc2ccc(O)cc2)NC(=O)[C@H](C)NC(=O)[C@H](C)NC1=O` [Mupain-1 P2A, CAAYSRYLDC] (Ac-CAAYSRYLDC-NH2; disulfide 1-10) here?
A: > 1000 µM

Q: Which Ki [1] does the source give for `CC(=O)N[C@H]1CSSC[C@@H](C(N)=O)NC(=O)[C@H](CC(=O)O)NC(=O)[C@H](CC(C)C)NC(=O)[C@H](C)NC(=O)[C@H](CCCNC(=N)N)NC(=O)[C@H](CO)NC(=O)[C@H](Cc2ccc(O)cc2)NC(=O)[C@H](C)NC(=O)[C@@H]2CCCN2C1=O` [Mupain-1 Y7A, CPAYSRALDC] (Ac-CPAYSRALDC-NH2; disulfide 1-10) here?
A: 44 ± 3 µM
